From patent US8912181B2 (Taiho Pharmaceutical Co., Ltd., priority 2011, dated 2014) come the findings set out here.

Assay [1] concerns the target human HSP90 alpha protein (N-terminal, amino acids 2 to 236) (Homo sapiens (Human), UniProt P07900). Put plainly: Determination of HSP90-binding activity (AlphaScreen competitive assay with biotinylated geldanamycin). The note with it: inhibition of binding of biotinylated geldanamycin to purified HSP90 N-terminal protein, read-out: HSP-binding activity IC50. How it is done:
First, a purified HSP90 solution was prepared as follows: a human HSP90 alpha gene (NCBI Reference Sequence accession no. NM-005348) region corresponding to amino acids 2 to 236 of human HSP90 alpha protein (NCBI Reference Sequence accession no. NP-005339; full length: 732 amino acids) was inserted to pET-19b (Novagen; Merck KGaA) to construct a plasmid pET-HS[…] for expression of the HSP90 N-terminal protein having a His-tag at the N-terminus. E. coli (BL21(DE3), Stratagene Corp.) was transformed with pET-HS[…] and then cultured at 37° C. for 4 hours in the presence of 0.5 mM isopropyl-beta-D-thiogalactopyranoside (Sigma-Aldrich Corp.). The collected E. coli was suspended in a lysis buffer (50 mM Tris-HCl (pH 7.5), 200 mM NaCl) and sonicated. The sonicated cell solution was centrifuged (40,000×g, 20 minutes), and the supernatant was used as a crude extract. This crude extract was fractionated using Ni Sepharose High Performance (GE Healthcare Japan Corp.) chromatography and HiLoad 26/60 Superdex 75 pg (GE Healthcare Japan Corp.). Then, a fraction of HSP90 protein concentrates was prepared in a solution containing 50 mM Tris-HCl (pH 7.5) and 20% glycerol as a purified HSP90 solution. The purified HSP90 solution was divided and stored at -80° C. until use. HSP90-binding activity was determined by an AlphaScreen competitive assay system. […] After reaction at room temperature for 2 hours, biotinylated geldanamycin was added thereto at a concentration of 40 nM/well and further reacted for 1 hour. Detection mix (20 mM HEPES-KOH (pH 7.5), 0.5% BSA, 0.04 mg/mL Nickel Chelate Acceptor beads, 0.04 mg/mL Streptavidin-coated Donor beads) (#6760619C, PerkinElmer, Inc.) was added to each well in an amount equal to the amount of the reaction solution and reacted at room temperature for 1 hour in the dark. Then, fluorescence intensity was measured using Multilabel Plate Reader EnVision (PerkinElmer, Inc.). Percent inhibition (%) of the binding of biotinylated geldanamycin by each compound of the present invention was determined according to the formula shown below with the fluorescence signal of no test substance addition group as a control. […] Percent inhibition (%)=(C-T)/C×100, wherein T: Signal of well with test substance addition C: Signal of well without test substance addition.

For the next assay, the system named is SK-BR-3 cells. Put plainly: Determination of cell growth inhibition (crystal violet staining method). The assay is classed as cell-based. The note with it: Homo sapiens; breast cancer cells SK-BR-3, 72 hours culture with test substance. How it is done: Cell growth was assayed by a crystal violet staining method. SK-BR-3 cells (HTB-30) purchased from American Type Culture Collection were inoculated at a concentration of 5,000 cells/well to a 96-well plate (#353075, BD Biosciences). After culture at 37° C. for 24 hours in a 5% CO2 incubator, each test substance was added thereto, and the cells were further cultured for 72 hours. A 25% glutaraldehyde solution (#17025-25, Nacalai Tesque, Inc.) was added thereto at a concentration of 20 μL/well per 200 μL of the medium, and the plate was incubated at room temperature for 20 minutes to fix the cells. The plate was washed with water and dried. Then, a solution containing 0.05% crystal violet (#038-17792, Wako Pure Chemical Industries, Ltd.) and 20% methanol was added thereto at a concentration of 100 μL/well, and the plate was incubated at room temperature for 20 minutes to stain the cells. The plate was washed with water and dried. A mixed solution of 0.05 M NaH2PO4 and ethanol (mixed in equal amounts) was added thereto at a concentration of 100 μL/well. Absorbance was measured at 540 nm using a microplate reader (MTP-450, Corona Electric Co., Ltd.) and used as an index for the number of cells per well. Percent inhibition (%) of cell growth by each compound of the present invention was determined according to the formula shown below with the absorbance of no drug addition group as a control. […] Percent inhibition (%)=(C−T)/C×100, wherein T: Absorbance of well with test substance addition C: Absorbance of well without test substance addition.

Structures are written as SMILES.

Regarding `NC(=O)c1ccc(-c2nccc3c(-c4cnc5[nH]ccc5c4)cccc23)cc1NC1CCC(O)CC1` (centres unmarked) [Example 14, 4-(5-(1H-Pyrrolo[2,3-b]pyridin-5-yl)isoquinolin-1-yl)-2-(4-hydroxycyclohexylamino)benzamide], the IC50 in assay [1] worked out at 1500 nM; in the assay on SK-BR-3 cells, 340 nM.
In the same order, the values of `NC(=O)c1ccc(-c2nccc3c(-c4cccnc4)cccc23)cc1NC1CCC(O)CC1` (centres unmarked) [Example 15, 2-(4-Hydroxycyclohexylamino)-4-(5-(pyridin-3-yl)isoquinolin-1-yl)benzamide] are 140 nM and 210 nM.
Taken in the same sequence, the figures for `NC(=O)c1ccc(-c2nccc3c(-c4cncc(CO)c4)cccc23)cc1NC1CCC(O)CC1` (centres unmarked) [Example 17, 2-(4-Hydroxycyclohexylamino)-4-(5-(5-(hydroxymethyl)pyridin-3-yl)isoquinolin-1-yl)benzamide] were 100 nM and 280 nM.
Consider `CC(C)(C)OC(=O)NCCc1cncc(-c2cccc3c(-c4ccc(C(N)=O)c(NC5CCC(O)CC5)c4)nccc23)c1` (centres unmarked) [Example 19, Tert-butyl 2-(5-(1-(4-carbamoyl-3-(4-hydroxycyclohexylamino)phenyl)isoquinolin-5-yl)pyridin-3-yl)ethylcarbamate], for which the IC50 in assay [1] amounted to 2690 nM; in the assay with SK-BR-3 cells it was 880 nM.
Taken in the same sequence, the figures for `COc1cncc(-c2cccc3c(-c4ccc(C(N)=O)c(NC5CCC(O)CC5)c4)nccc23)c1` (centres unmarked) [Example 24, 2-(4-Hydroxycyclohexylamino)-4-(5-(5-methoxypyridin-3-yl)isoquinolin-1-yl)benzamide] were 650 nM and 690 nM.
For the molecule `NC(=O)c1ccc(-c2nccc3c(-n4cnc(-c5ccncc5)c4)cccc23)cc1NC1CCC(O)CC1` (centres unmarked) [Example 25, 2-(4-Hydroxycyclohexylamino)-4-(5-(4-(pyridin-4-yl)-1H-imidazol-1-yl)isoquinolin-1-yl)benzamide], the IC50 in assay [1] amounted to 130 nM; in the assay with SK-BR-3 cells, 110 nM.
Consider `CC(=O)Nc1cncc(-c2cccc3c(-c4ccc(C(N)=O)c(NC5CCC(O)CC5)c4)nccc23)c1` (centres unmarked) [Example 27, 4-(5-(5-Acetamidepyridin-3-yl)isoquinolin-1-yl)-2-(4-hydroxycyclohexylamino)benzamide], for which the IC50 in assay [1] is 150 nM; in the assay with SK-BR-3 cells, 540 nM.
On to `NC(=O)c1ccc(-c2nccc3c(-c4cncc(NC(=O)CO)c4)cccc23)cc1NC1CCC(O)CC1` (centres unmarked) [Example 28, 4-(5-(5-(2-Hydroxyacetamide)pyridin-3-yl)isoquinolin-1-yl)-2-(4-hydroxycyclohexylamino)benzamide], for which the results for the IC50 (in assay [1]; in the assay on SK-BR-3 cells) were 230 nM and 500 nM, respectively.
In the same order, the values of `NC(=O)c1ccc(-c2nc(CN3CCOCC3)cc3c(-c4cnc5ccccc5c4)cccc23)cc1NC1CCC(O)CC1` (centres unmarked) [Example 31, 2-(4-Hydroxycyclohexylamino)-4-(3-(morpholinomethyl)-5-(quinolin-3-yl)isoquinolin-1-yl)benzamide] are 800 nM and 580 nM.
As for `NC(=O)c1ccc(-c2nccc3c(-n4cnc(-c5cccnc5)c4)cccc23)cc1NC1CCC(O)CC1` (centres unmarked) [Example 32, 2-(4-Hydroxycyclohexylamino)-4-(5-(4-(pyridin-3-yl)-1H-imidazol-1-yl)isoquinolin-1-yl)benzamide], the concentration for half-maximal inhibition (IC50) stood at 80 nM in assay [1] and 20 nM in the assay on SK-BR-3 cells.
For the molecule `CNc1cncc(-c2cccc3c(-c4ccc(C(N)=O)c(NC5CCC(O)CC5)c4)nccc23)c1` (centres unmarked) [Example 34, 2-(4-Hydroxycyclohexylamino)-4-(5-(5-(methylamino)pyridin-3-yl)isoquinolin-1-yl)benzamide], the results for the IC50 (in assay [1]; in the assay on SK-BR-3 cells) were 140 nM and 50 nM, respectively.
`CCCNc1cncc(-c2cccc3c(-c4ccc(C(N)=O)c(NC5CCC(O)CC5)c4)nccc23)c1` (centres unmarked) [Example 35, 2-(4-Hydroxycyclohexylamino)-4-(5-(5-(propylamino)pyridin-3-yl)isoquinolin-1-yl)benzamide]: the half-inhibitory concentration (IC50) in assay [1] turned out to be 1490 nM; in the assay with SK-BR-3 cells, 460 nM.
With `CN(CCO)CNC(=O)c1ccc(-c2nccc3c(-c4cnc5ccccc5c4)cccc23)cc1NC1CCC(O)CC1` (centres unmarked) [Example 37, 2-(4-Hydroxycyclohexylamino)-N-(((2-hydroxyethyl)(methyl)amino)methyl)-4-(5-(quinolin-3-yl)isoquinolin-1-yl)benzamide], the figures for the IC50 (in assay [1]; in the assay on SK-BR-3 cells) were 370 nM and 60 nM, respectively.
Consider `CN(C)CNC(=O)c1ccc(-c2nccc3c(-c4cnc5ccccc5c4)cccc23)cc1NC1CCC(O)CC1` (centres unmarked) [Example 38, N-((dimethylamino)methyl)-2-(4-hydroxycyclohexylamino)-4-(5-(quinolin-3-yl)isoquinolin-1-yl)benzamide], for which the IC50 in assay [1] came to 980 nM; in the assay on SK-BR-3 cells it was 40 nM.
In the same order, the values of `NC(=O)c1ccc(-c2nccc3c(-c4cnc5cc[nH]c5c4)cccc23)cc1NC1CCC(O)CC1` (centres unmarked) [Example 39, 4-(5-(1H-Pyrrolo[3,2-b]pyridin-6-yl)isoquinolin-1-yl)-2-(4-hydroxycyclohexylamino)benzamide] are 130 nM and 10 nM.
As to `Cc1nc2ncc(-c3cccc4c(-c5ccc(C(N)=O)c(NC6CCC(O)CC6)c5)nccc34)cc2[nH]1` (centres unmarked) [Example 40, 2-(4-Hydroxycyclohexylamino)-4-(5-(2-methyl-1H-imidazo[4,5-b]pyridin-6-yl)isoquinolin-1-yl)benzamide], the IC50 is 150 nM in assay [1] and 540 nM with SK-BR-3 cells.
For `CCc1nc2ncc(-c3cccc4c(-c5ccc(C(N)=O)c(NC6CCC(O)CC6)c5)nccc34)cc2[nH]1` (centres unmarked) [Example 41, 4-(5-(2-Ethyl-1H-imidazo[4,5-b]pyridin-6-yl)isoquinolin-1-yl)-2-(4-hydroxycyclohexylamino)benzamide], the figures for the IC50 (in assay [1]; with SK-BR-3 cells) were 390 nM and 1270 nM, respectively.
For the molecule `NC(=O)c1ccc(-c2nccc3c(-c4cncnc4)cccc23)cc1NC1CCC(O)CC1` (centres unmarked) [Example 43, 2-(4-Hydroxycyclohexylamino)-4-(5-(pyrimidin-5-yl)isoquinolin-1-yl)benzamide], the IC50 in assay [1] was 690 nM; in the assay with SK-BR-3 cells it was 1100 nM.
For `NC(=O)c1ccc(-c2nccc3c(-c4cnc5cc(C=O)ccc5c4)cccc23)cc1NC1CCC(O)CC1` (centres unmarked) [Example 45, 4-(5-(7-Formylquinolin-3-yl)isoquinolin-1-yl)-2-(4-hydroxycyclohexylamino)benzamide], the IC50 in assay [1] worked out at 220 nM; in the assay on SK-BR-3 cells it was 30 nM.
Take `Cn1cc(-c2cn(-c3cccc4c(-c5ccc(C(N)=O)c(NC6CCC(O)CC6)c5)nccc34)cn2)cn1` (centres unmarked) [Example 48, 2-(4-Hydroxycyclohexylamino)-4-(5-(4-(1-methyl-1H-pyrazol-4-yl)-1H-imidazol-1-yl)isoquinolin-1-yl)benzamide]: the IC50 was 70 nM in assay [1] and 20 nM in the assay with SK-BR-3 cells.
Taken in the same sequence, the figures for `NC(=O)c1ccc(-c2nccc3c(-c4cnc5ccc(CN6CCOCC6)cc5c4)cccc23)cc1NC1CCC(O)CC1` (centres unmarked) [Example 49, 2-(4-Hydroxycyclohexylamino)-4-(5-(6-(morpholinomethyl)quinolin-3-yl)isoquinolin-1-yl)benzamide] were 1560 nM and 400 nM.
Taken in the same sequence, the figures for `CC(C)n1cc(-c2cn(-c3cccc4c(-c5ccc(C(N)=O)c(NC6CCC(O)CC6)c5)nccc34)cn2)cn1` (centres unmarked) [Example 53, 2-(4-Hydroxycyclohexylamino)-4-(5-(4-(1-isopropyl-1H-pyrazol-4-yl)-1H-imidazol-1-yl)isoquinolin-1-yl)benzamide] were 120 nM and 40 nM.
